Results on 2 substances are retold here after patent US12624068B2, “Exon skipping by peptide nucleic acid derivatives” (OliPass Corporation, priority 2016, dated 2026).

{Fethoc} = N-terminal Fethoc capping group (publication's abbreviation); [C(1O2)] = modified PNA monomer acting as cytosine, C(pOq) type, 1O2; [A(5)] = modified PNA monomer acting as adenine, A(p) type, p=5; [G(6)] = modified PNA monomer acting as guanine, G(p) type, p=6; {NH2} = C-terminal non-substituted amino (amide) group Bounds are passed on as bounds.

One data set relates to human IL-2 mRNA. Kind of data set: IL-2 qPCR in Jurkat cells. The following applies: 24 hours. Format: cell-based. The method, then: Down-regulation of the PD-1 activity has been known to upregulate the expression of interleukin 2 (IL-2). [Am. J. Clin. Oncol. Vol 39(1), 98-106 (2016)] […] [Cell Culture & ASO Treatment] Jurkat cells grown in 60 mm culture dish were activated with an anti-CD3 antibody (Cat. Number 16-0037, eBioscience) at 1 μg/mL and an anti-CD28 antibody (Cat. No. 16-0289, eBioscience) at 0.5 μg/mL for 48 hours. Then the culture medium was replaced with fresh medium, and treated with “PD-ASO 3” at 0 (negative control), 10, 100 or 1,000 aM for 24 hours. (4 culture dishes per ASO concentration) [RNA Extraction and cDNA Synthesis] Total RNA was extracted using RNeasy mini prep kit (Qiagen, USA) according to the manufacturer's protocol. […] [qPCR by SYBR] 1 μL of each cDNA solution was subjected to a 20 μL qPCR amplifications against a set of primers targeting the IL-2 mRNA [IL-2_forward: (5'→3') […] NO: 161); and IL-2_reverse: (5'→3') […] NO: 162)] according to the following cycle conditions: 20 seconds at 95° C., 30 seconds at 56° C., and 40 seconds at 72° C. for 40 cycles. The qPCR reaction was probed with SYBR (Bio-Rad, USA).

A further data set relates to human PD-1 pre-mRNA. Kind of data set: PD-1 nested PCR for exon skipping in Jurkat cells. Particulars: 5 hours. The data set is classed as cell-based. The method, then:
“PD-ASO 3” was evaluated for its ability to induce the skipping of the human PD-1 exon 2 in Jurkat cells as follows. [Cell Culture & ASO Treatment] Jurkat cells (Cat. Number TIB-152, ATCC) were maintained in RPMI-1640 supplemented with 10% FBS and 1% streptomycin/penicillin. Jurkat cells grown in 60 mm culture dish containing 5 mL culture medium were treated for 5 hours with “PD-ASO 5” at 0 (negative control), 10, 100 or 1,000 aM. [RNA Extraction and cDNA Synthesis by One Step RT-PCR] Total RNA was extracted using RNAeasy mini prep kit (Qiagen, USA) according to the manufacturer's protocol. […] NO: 153); and PD-exon 5_reverse: (5'→3') […] NO: 154)]. Cycle conditions: 50° C. for 30 minutes and 94° C. for 2 minutes, which was followed by 30 cycles of 30 seconds at 94° C., 30 seconds at 53° C., and 1 minutes at 72° C. [Nested PCR Amplification] 1 μL of cDNA diluted by 100× was further amplified in a 20 μL nested PCR (Invitrogen, USA) using the following cycle conditions: 20 seconds at 95° C., 30 seconds at 56° C., and 40 seconds at 72° C. for 40 cycles against a set of exon-specific primers [PD-exon 1n_forward: (5'→3') […] NO: 155); and PD-exon 5n_reverse: (5'→3') […] NO: 156)]. [Identification of Exon Skipping Products] The resulting nested PCR products were subjected to electrophoretic separation on a 2% agarose gel. The bands of target size were collected and analyzed by Sanger sequencing.

Another data set deals with human PD-1 mRNA. The data set is described as follows: PD-1 nested qPCR in Jurkat cells. Particulars: 24 hours. Format: cell-based. The method, then: [Cell Culture & ASO Treatment] Jurkat cells grown in 60 mm culture dish were activated with an anti-CD3 antibody (Cat. Number 16-0037, eBioscience) at […] and an anti-CD28 antibody (Cat. No. 16-0289, eBioscience) at 0.5 μg/mL for 48 hours. Then the culture medium was replaced with fresh medium, and treated with “PD-ASO 3” at 0 (negative control), 10, 100 or 1,000 aM for 24 hours. (4 culture dishes per ASO concentration) [RNA Extraction and cDNA Synthesis by One Step RT-PCR] Total RNA was extracted using RNAeasy mini prep kit (Qiagen, USA) according to the manufacturer's protocol. […] NO: 157); and PD-exon 5_reverse: (5'→3') […] NO: 158)]. Cycle conditions: 50° C. for 30 minutes and 94° C. for 2 minutes, which was followed by 30 cycles of 30 seconds at 94° C., 30 seconds at 53° C., and 1 minutes at 72° C. [Nested qPCR by SYBR] […] NO: 159); and PD-exon 2_reverse: (5'→3') […] NO: 160)] according to the following cycle conditions: 20 seconds at 95° C., 30 seconds at 56° C., and 40 seconds at 72° C. for 40 cycles. The qPCR reaction was probed with SYBR (Bio-Rad, USA).
(In general: In qPCR the cycle at which signal appears reflects the starting amount.)

Data set [1] relates to secretion of kynurenine in SKOV3 cells. The data set is described as follows: Kynurenine secretion assay in SKOV3 cells. Format: cell-based, human. Particulars: 24 hours, with 10 ng/mL γ-interferon. The method, then:
The functional activity of “IDO-ASO 1” was evaluated for its ability to inhibit the secretion of kynurenine in SKOV3 cells as follows.
[Kynurenine Secretion Assay] […] (3 dishes per concentration) Cells were treated with the ASO along with 10 ng/mL γ-interferon to increase the kynurenine secretion. 24 hours later, 200 μL of the culture medium was sampled from each culture dish and mixed with 100 μL 30% trichloroacetic acid. The mixture was vortexed and subjected to centrifugation at 8,000 g for 5 min. 75 μL of the resulting supernatant was mixed with 75 μL Ehrlich reagent (0.8% p-dimethylamino-benzaldehyde in acetic acid), and the mixture was subjected to a quantification for kynurenine at 490 nm on an ELISA reader. [PLOS One 5(8): e63301 (2013)]

A further data set has as its system human IDO1 pre-mRNA. Kind of data set: IDO1 nested PCR for exon skipping in SKOV3 cells. Particulars: 48 hours. Format: cell-based. The method, then:
“IDO-ASO 1” was evaluated for its ability to induce exon skipping in SKOV3 cells (Cat. Number HTB-77, ATCC) by IDO1 nested PCR as follows. [Cell Culture & ASO Treatment] SKOV3 (human ovary adenocarcinoma) cells were subcultured in 60 mm culture dish containing 5 mL McCoy's 5A modified medium supplemented with 10% FBS, 1% streptomycin/penicillin, 1% L-glutamine, and 1% sodium pyruvate under 5% CO2 at 37° C., and treated with “IDO-ASO 1” for 48 hours at 0 zM (negative control), 10 zM, 100 zM or 1 aM. [RNA Extraction & cDNA Synthesis by One-Step RT-PCR] Total RNA was extracted from the cells using “Universal RNA Extraction Kit” (Cat. Number 9767, Takara) according to the manufacturer's instructions. […] NO: 114); and IDO-exon 10_reverse: (5'→3') […] [Nested PCR Amplification] 1 μL of cDNA was further amplified in a 20 μL nested PCR reaction (Cat. No. K2612, Bioneer) against a set of exon-specific primers [IDO-exon 4_forward: (5'→3') […] NO: 116); and IDO-exon 9_reverse: (5'→3') […] [Identification of Exon Skipping Product] The PCR products were subjected to electrophoretic separation on a 2% agarose gel. The bands of target size were collected and analyzed by Sanger sequencing. […] [ASO Treatment] SKOV3 cells grown in 60 mm culture dish were treated with “IDO-ASO 5” at 0 (negative control), 1, 3, 10, 30 or 100 aM for 48 hours. [cDNA Synthesis by One-step PCR] […] NO: 119); and IDO-exon 8_reverse: (5'→3') […] [Nested PCR Amplification] 1 μL of cDNA was further amplified in a 20 μL nested PCR (Cat. No. K2612, Bioneer) reaction using a set of exon-specific primers [IDO-exon 1n_forward: (5'→3') […] NO: 121); and IDO-exon 8n_reverse: (5'→3') […] “IDO-ASO 6” was evaluated for its ability to induce exon skipping in SKOV3 cells by IDO1 nested PCR as described in “IDO1 Example 3” unless noted otherwise.

[2] abbreviates: activated Jurkat cells, 1,000 aM.

As to “Fethoc-CG(6)C-A(5)CC-TG(6)T-CA(5)C-C(1O2)C-NH2 (CGCACCTGTCACCC; splice-switching; all peptide nucleic acid (PNA), [G(6)] at 2, 8, [A(5)] at 4, 11, [C(1O2)] at 13, 5' {Fethoc}, 3' {NH2}; peptide nucleic acid backbone) [PD-ASO 3]”, the “increase of IL-2 mRNA level (qPCR)” value in the data set with human IL-2 mRNA (activated Jurkat cells, 10 aM) is reported as approximately 140%; in the data set with human IL-2 mRNA (activated Jurkat cells, 100 aM), 120%; in the data set with human IL-2 mRNA (setting [2]) it was 40%. In addition, the “PD-1 exon skipping by nested PCR” value with human PD-1 pre-mRNA (Jurkat cells, 10 and 100 aM) was “yielded a PCR product band corresponding to the skipping of exon 2”; in the data set with human PD-1 pre-mRNA (Jurkat cells, 1,000 aM), “the PCR product of exon 2 skipping disappeared”. Also, in the data set on human PD-1 mRNA (activated Jurkat cells, 10 and 100 aM), the “decrease of PD-1 mRNA level (nested qPCR)” value is on record as more than 80%. For the same substance, in the data set with human PD-1 mRNA (setting [2]), the “PD-1 mRNA level relative to the negative control level (nested qPCR)” value is listed as approximately 55%.

In the case of “Fethoc-GG(6)A-A(5)TT-A(5)CC(1O2)-TAA(5)-A-NH2 (GGAATTACCTAAA; splice-switching; all peptide nucleic acid (PNA), [G(6)] at 2, [A(5)] at 4, 7, 12, [C(1O2)] at 9, 5' {Fethoc}, 3' {NH2}; peptide nucleic acid backbone) [IDO-ASO 1]”, the “decrease of kynurenine secretion” value in data set [1] (1 fM) is approximately 40%. Besides, the secretion of kynurenine entry in data set [1] (10 zM to 1 fM except 1 aM) is “significantly (student's t-test) decreased”. Moreover, the results for the “intensity of the full-length IDO-1 mRNA by nested PCR” value in the data set with human IDO1 pre-mRNA (1 aM) and with human IDO1 pre-mRNA (10 or 100 zM) were “increased” and “decreased”, respectively. The “IDO1 exon skipping band by nested PCR” value in the data set with human IDO1 pre-mRNA (10 zM or 1 aM) was “not detected”. Also, the “skipping of IDO1 exons 6-7 by nested PCR” value in the data set with human IDO1 pre-mRNA (100 zM) is reported as “detected”.
